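Values below derive from 48-hour exposures of cells grown in 96-well plates, with endpoints linearly interpolated between the two concentrations bracketing the appropriate inhibition level. GI50 marks 50% less growth.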 Calls of active or inactive are those of the source. No stated cut-off is given here; in the data, active = GI50 up to about 1.1 µM and inactive = higher.
Columns and labels:
Assay in all cases: growth of human tumour cells (NCI), 48 h
OVCAR-8 = system: OVCAR-8
CCRF-CEM = system: CCRF-CEM
NCI-H23 = system: NCI-H23
ACHN = system: ACHN
MOLT-4 = system: MOLT-4
SK-MEL-5 = system: SK-MEL-5
SW-620 = system: SW-620
UACC-62 = system: UACC-62
OVCAR-4 = system: OVCAR-4
PC-3 = system: PC-3
RXF 393 = system: RXF 393
HT-29 = system: HT-29
KM12 = system: KM12
Hs-578T = system: Hs-578T
SNB-75 = system: SNB-75
SNB-19 = system: SNB-19
HOP-92 = system: HOP-92
K562 = system: K562
U-251 = system: U-251
HCC 2998 = system: HCC 2998
HCT-15 = system: HCT-15
A549 = system: A549
OVCAR-5 = system: OVCAR-5
HOP-62 = system: HOP-62
COLO 205 = system: COLO 205
TK-10 = system: TK-10
SF-295 = system: SF-295
SK-MEL-2 = system: SK-MEL-2
CAKI-1 = system: CAKI-1
SR = system: SR
SK-OV-3 = system: SK-OV-3
RPMI-8226 = system: RPMI-8226
LOX IMVI = system: LOX IMVI
EKVX = system: EKVX
SF-539 = system: SF-539
SN12C = system: SN12C
786-0 = system: 786-0
HL-60 = system: HL-60
NCI/ADR-RES = system: NCI/ADR-RES
UO-31 = system: UO-31
IGROV-1 = system: IGROV-1
T47D = system: T47D
SK-MEL-28 = system: SK-MEL-28
NCI-H460 = system: NCI-H460
MDA-MB-435 = system: MDA-MB-435
Malme-3M = system: Malme-3M
NCI-H226 = system: NCI-H226
MDA-MB-231 = system: MDA-MB-231
HCT-116 = system: HCT-116
NCI-H522 = system: NCI-H522
DU-145 = system: DU-145
SF-268 = system: SF-268
UACC-257 = system: UACC-257
A498 = system: A498
MCF7 = system: MCF7
MDA-N = system: MDA-N
M14 = system: M14
OVCAR-3 = system: OVCAR-3

With `c1ccc(/N=c2/[nH]c3ccccc3s/c2=N/c2ccccc2)cc1` the GI50 (OVCAR-8) was > 100 µM (inactive), the GI50 (CCRF-CEM) was > 100 µM (inactive) and the GI50 (NCI-H23) was > 100 µM (inactive). The GI50 (ACHN) was > 100 µM (inactive), the GI50 (MOLT-4) was > 100 µM (inactive) and the GI50 (SK-MEL-5) was > 100 µM (inactive). For the same compound, the GI50 (SW-620) was > 100 µM (inactive), the GI50 (UACC-62) was > 100 µM (inactive) and the GI50 (OVCAR-4) was > 100 µM (inactive). The GI50 (PC-3) was > 100 µM (inactive), the GI50 (RXF 393) was 48.4 µM (inactive) and the GI50 (HT-29) was 82 µM (inactive). The GI50 (KM12) was 73.8 µM (inactive), the GI50 (Hs-578T) was > 100 µM (inactive) and the GI50 (SNB-75) was > 100 µM (inactive). For the same compound, the GI50 (SNB-19) was > 100 µM (inactive), the GI50 (HOP-92) was > 100 µM (inactive) and the GI50 (K562) was > 100 µM (inactive). The GI50 (U-251) was > 100 µM (inactive), the GI50 (HCC 2998) was 42.7 µM (inactive) and the GI50 (HCT-15) was greater than 100 µM. For the same compound, the GI50 (A549) was > 100 µM (inactive), the GI50 (OVCAR-5) was > 100 µM (inactive) and the GI50 (HOP-62) was > 100 µM (inactive). The GI50 (COLO 205) was > 100 µM (inactive), the GI50 (TK-10) was > 100 µM (inactive) and the GI50 (SF-295) was > 100 µM (inactive). For the same compound, the GI50 (SK-MEL-2) was 77.1 µM (inactive), the GI50 (CAKI-1) was > 100 µM (inactive) and the GI50 (SR) was > 100 µM (inactive). The GI50 (SK-OV-3) was > 100 µM (inactive), the GI50 (RPMI-8226) was > 100 µM (inactive) and the GI50 (LOX IMVI) was > 100 µM (inactive). For the same compound, the GI50 (EKVX) was > 100 µM (inactive), the GI50 (SF-539) was > 100 µM (inactive) and the GI50 (SN12C) was > 100 µM (inactive). The GI50 (786-0) was > 100 µM (inactive), the GI50 (HL-60) was > 100 µM (inactive) and the GI50 (NCI/ADR-RES) was > 100 µM (inactive). The GI50 (UO-31) was > 100 µM (inactive), the GI50 (IGROV-1) was > 100 µM (inactive) and the GI50 (T47D) was 93.8 µM (inactive). The GI50 (SK-MEL-28) was > 100 µM (inactive), the GI50 (NCI-H460) was 28.1 µM (inactive) and the GI50 (MDA-MB-435) was > 100 µM (inactive). The GI50 (Malme-3M) was > 100 µM (inactive), the GI50 (NCI-H226) was > 100 µM (inactive) and the GI50 (MDA-MB-231) was > 100 µM (inactive). The GI50 (HCT-116) was > 100 µM (inactive), the GI50 (NCI-H522) was 26.3 µM (inactive) and the GI50 (DU-145) was > 100 µM (inactive). The GI50 (SF-268) was > 100 µM (inactive), the GI50 (UACC-257) was > 100 µM (inactive) and the GI50 (A498) was > 100 µM (inactive).

In the case of `CN1CCN(c2cc3nsnc3c3nsnc23)CC1`, the GI50 (OVCAR-8) is reported as > 10 µM (inactive), the GI50 (CCRF-CEM) is reported as > 10 µM (inactive) and the GI50 (NCI-H23) is reported as > 10 µM (inactive). The GI50 (MOLT-4) was > 10 µM (inactive), the GI50 (SK-MEL-5) was > 10 µM (inactive) and the GI50 (SW-620) was > 10 µM (inactive). For the same compound, the GI50 (UACC-62) was > 10 µM (inactive), the GI50 (PC-3) was > 10 µM (inactive) and the GI50 (RXF 393) was > 10 µM (inactive). The GI50 (HT-29) was > 10 µM (inactive), the GI50 (KM12) was > 10 µM (inactive) and the GI50 (SNB-75) was > 10 µM (inactive). For the same compound, the GI50 (MCF7) was > 10 µM (inactive), the GI50 (K562) was > 10 µM (inactive) and the GI50 (HCC 2998) was > 10 µM (inactive). The GI50 (HCT-15) was greater than 10 µM, the GI50 (A549) was > 10 µM (inactive) and the GI50 (HOP-62) was > 10 µM (inactive). The GI50 (COLO 205) was > 10 µM (inactive), the GI50 (TK-10) was > 10 µM (inactive) and the GI50 (SF-295) was > 10 µM (inactive). For the same compound, the GI50 (MDA-N) was > 10 µM (inactive), the GI50 (CAKI-1) was > 10 µM (inactive) and the GI50 (SR) was > 10 µM (inactive). The GI50 (SK-OV-3) was > 10 µM (inactive), the GI50 (RPMI-8226) was > 10 µM (inactive) and the GI50 (M14) was > 10 µM (inactive). The GI50 (LOX IMVI) was > 10 µM (inactive), the GI50 (EKVX) was > 10 µM (inactive) and the GI50 (SN12C) was > 10 µM (inactive). For the same compound, the GI50 (786-0) was > 10 µM (inactive), the GI50 (HL-60) was > 10 µM (inactive) and the GI50 (IGROV-1) was > 10 µM (inactive). For the same compound, the GI50 (T47D) was > 10 µM (inactive), the GI50 (SK-MEL-28) was > 10 µM (inactive) and the GI50 (Malme-3M) was > 10 µM (inactive). The GI50 (MDA-MB-231) was > 10 µM (inactive), the GI50 (DU-145) was > 10 µM (inactive) and the GI50 (SF-268) was > 10 µM (inactive). For the same compound, the GI50 (UACC-257) was > 10 µM (inactive).

In the case of `OCC(O)C(O)C(C=NNc1ncnc2ccc(Br)cc12)=NNc1ncnc2ccc(Br)cc12` (stereo not given), the GI50 (OVCAR-8) is reported as 1.72 µM (inactive), the GI50 (ACHN) is reported as 1.85 µM (inactive) and the GI50 (MOLT-4) is reported as 0.282 µM (active). The GI50 (SK-MEL-5) was 1.22 µM (inactive), the GI50 (OVCAR-4) was 0.435 µM (active) and the GI50 (PC-3) was 4.73 µM (inactive). For the same compound, the GI50 (HT-29) was 0.662 µM (active), the GI50 (KM12) was 5.7 µM (inactive) and the GI50 (Hs-578T) was 41.9 µM (inactive). For the same compound, the GI50 (SNB-75) was 5.82 µM (inactive), the GI50 (MCF7) was 0.479 µM (active) and the GI50 (SNB-19) was 6.04 µM (inactive). For the same compound, the GI50 (HOP-92) was 4.3 µM (inactive), the GI50 (K562) was 2.58 µM (inactive) and the GI50 (U-251) was 1.28 µM (inactive). For the same compound, the GI50 (A549) was 6.3 µM (inactive), the GI50 (OVCAR-5) was 5.13 µM (inactive) and the GI50 (HOP-62) was 5.12 µM (inactive). For the same compound, the GI50 (COLO 205) was 0.366 µM (active), the GI50 (TK-10) was 13.2 µM (inactive) and the GI50 (SF-295) was 4.74 µM (inactive). The GI50 (MDA-N) was 5.06 µM (inactive), the GI50 (SK-MEL-2) was 2.26 µM (inactive) and the GI50 (CAKI-1) was 2.22 µM (inactive). The GI50 (SR) was 0.579 µM (active), the GI50 (SK-OV-3) was 2.59 µM (inactive) and the GI50 (M14) was 3.48 µM (inactive). The GI50 (LOX IMVI) was 0.991 µM (active), the GI50 (EKVX) was 0.581 µM (active) and the GI50 (SF-539) was 3.13 µM (inactive). The GI50 (SN12C) was 6.84 µM (inactive), the GI50 (786-0) was 1.14 µM (inactive) and the GI50 (HL-60) was 0.325 µM (active). For the same compound, the GI50 (OVCAR-3) was 0.344 µM (active), the GI50 (UO-31) was 9.71 µM (inactive) and the GI50 (IGROV-1) was 1.45 µM (inactive). For the same compound, the GI50 (T47D) was 0.413 µM (active), the GI50 (MDA-MB-435) was 4.79 µM (inactive) and the GI50 (Malme-3M) was 1.84 µM (inactive). For the same compound, the GI50 (NCI-H226) was 2.12 µM (inactive), the GI50 (MDA-MB-231) was 1.26 µM (inactive) and the GI50 (HCT-116) was 0.404 µM (active). The GI50 (NCI-H522) was 0.404 µM (active), the GI50 (SF-268) was 1.16 µM (inactive) and the GI50 (UACC-257) was 3.52 µM (inactive). The GI50 (A498) was 26 µM (inactive).

Source: ChEMBL document CHEMBL1201862, “PubChem BioAssay data set” (2004)
